From PMC8387043, “Host Poly(A) Polymerases PAPD5 and PAPD7 Provide Two Layers of Protection That Ensure the Integrity and Stability of Hepatitis B Virus RNA” (Journal of Virology, 2021)

Experiments:
recombinant human PAPD7 = target: T1, recombinant human PAPD7 (Homo sapiens, UniProt Q5XG87); assay: PAPD7 ATP depletion assay; format: biochemical
T1 construct: PAPD7 (amino acids 226 to 558; NM_006999.6); 10xHis (N); Flag (N); TEV cleavage site (N); host or cells: E. coli BL21(DE3), vector pET-24a(+)
Protocol: (§1) Molecular cloning, expression, and purification of the recombinant human PAPD5 and PAPD7 proteins were performed at Xtal BioStructures (MA, USA). PAPD5 (amino acids 186 to 518; GenBank accession no. XM_011523275) and PAPD7 (amino acids 226 to 558; GenBank accession no. NM_006999.6) genes comprising of nucleotidyltransferase and PAP-associated domains were codon optimized, synthesized, and inserted in the expression vector pET-24a(+) for E. coli expression with 10×His-Flag-tobacco etch virus (TEV) tags at the N terminus. The pET-24a(+) constructs were transformed into E. coli-competent cells BL21(DE3). […] Expression of protein was induced for 16 h with 0.2 mM IPTG (isopropyl-β-D-thiogalactopyranoside) at 18°C. […] Roche). Cell suspension was sonicated 8 × 20 s at 27 to 30 W (power level, 3.5 to 4.0) with 40-s breaks between each pulse. Lysate was cleared by centrifugation in a 50-ml conical tube at 20,000 × g for 30 min (Fiberlite F13-14 × 50cy rotor in a Sorvall RC6 centrifuge). Supernatant was incubated with Ni-charged MagBeads (GenScript; catalog no. […] Bound proteins were washed with 50 ml binding buffer and eluted in elution buffer containing a gradient of imidazole ranging from 5 to 500 mM. Peak fractions were pooled and stored in 50% glycerol at -80°C. Reactions were carried out in duplicate in 96-well low-profile, skirted, white plates (catalog no. AB0800WL; […] The reaction mixtures were incubated at room temperature for 3 h, and ATP depletion was monitored by using Kinase-Glo luminescent kinase kit following the manufacturer's instructions (catalog no. V6712; Promega, WI, USA).

HCV = assay: Antiviral selectivity panel, luciferase in Huh-7 cells; format: cell-based; conditions: Hepatitis C virus; Huh-7, Luciferase
recombinant human PAPD5 = target: T2, recombinant human PAPD5 (Homo sapiens, UniProt Q8NDF8); assay: PAPD5 ATP depletion assay; format: biochemical; conditions: truncated recombinant human PAPD5, ATP depletion
T2 construct: PAPD5 (amino acids 186 to 518; XM_011523275); 10xHis (N); Flag (N); TEV cleavage site (N); host or cells: E. coli BL21(DE3), vector pET-24a(+)
Protocol: as §1

HBV [1] = assay: Intracellular HBV pgRNA and sRNA by Northern blotting in HepG2.2.15 cells; format: cell-based, hepatitis B virus; conditions: HepG2.2.15, 48 h, 1,000 nM
Protocol: Total cellular RNA was extracted from HepG2.2.15 or HepAD38 cells treated with or without antiviral compounds using TRIzol reagent according to the manufacturer's directions (Thermo Fisher Scientific, Waltham, MA). Northern blotting was performed as described previously ([1]). Briefly, total RNA was separated in a 1.5% agarose gel and transferred onto an Amersham Hybond-XL membrane (product no. GERPN303S; GE Healthcare, IL, USA). Membranes were probed with an [α-^32P]UTP (PerkinElmer, CT, USA)-labeled minus strand-specific full-length HBV riboprobe (3.2 kb) transcribed from plasmid pSP65_HBV(+) DNA. Membranes were exposed to a phosphoimager screen, and the hybridization signals were quantified using Image Studio software (Li-Cor Biosciences, NE, USA).

HBV [2] = assay: AAV-HBV-transduced mouse model; conditions: 7 days; for mean reduction of serum HBV DNA vs vehicle / mean reduction of serum HBsAg vs vehicle / reduction of intrahepatic HBsAg levels / reduction of intrahepatic pgRNA levels / reduction of intrahepatic total HBV RNA levels: oral
Protocol: Male C57BL/6J mice, 6 weeks old, were each inoculated with 1E11 genomes of adeno-associated virus (AAV) vector AAV-HBV1.2 containing a 1.2× overlength sequence of HBV genome (genotype D; GenBank accession no. V01460) ([2]). Mice were administered the AAV2/8-type vector via intravenous tail vein injection. Twenty-eight days after AAV infection, animals were randomized into groups (n = 5) based on serum HBsAg concentration. […] Serum and liver HBsAg concentrations were determined using the Bio-Rad enzyme immunoassay (EIA) GS HBsAg 3.0 kit according to the manufacturer's instructions. […] Total HBV RNA concentrations in the liver were quantified using a branched DNA assay (QuantiGene 2.0; Thermo Fisher Scientific) with probes targeting the shared 3′ region of HBV transcripts, whereas 3.5 kb HBV RNA concentrations were quantified with probes targeting the unique 5′ region of the pgRNA; in both cases, signal was normalized against mouse glyceraldehyde 3-phosphate dehydrogenase (GAPDH).

HBV [3] = assay: HBsAg inhibition in PLC/PRF/5 cells; format: cell-based; conditions: Hepatitis B virus
Protocol: AB-452 and RG7834 both belong to the dihydroquinolizinones chemical class. The antiviral activities of AB-452 and its diastereomer ARB-169451 were evaluated using multiple in vitro HBV replication models, including HepG2.2.15 cells (which constitutively express HBV through the integrated viral genome), PLC/PRF/5 cells (a patient-derived hepatocellular carcinoma cell line only expressing HBsAg), and HBV-infected HepG2-NTCP cells or primary human hepatocytes (PHHs) in which viral replication was dependent on cccDNA transcription (Table 1).
HepG2.2.15, HepAD38, and PLC/PRF/5 cells were cultured in Dulbecco’s modified Eagle medium (DMEM)/F12 medium (Corning, NY, USA), supplemented with 10% fetal bovine serum (Gemini, CA, USA), 100 U/ml penicillin, and 100 μg/ml streptomycin. Huh-7 cells (Creative Bioarray, NY, USA) were cultured in RPMI 1640 medium (Basel, Switzerland) containing 10% fetal bovine serum, 100 U/ml penicillin, and 100 μg/ml streptomycin. HepG2-hNTCP-C4 cells were cultured in DMEM medium (Gibco, MA, USA) containing 10% fetal bovine serum and 10 mM HEPES (Gibco).

HBV RNA poly(A) tails = assay: HBV poly(A) tail length and composition (NGS) in HepAD38 cells; format: cell-based, hepatitis B virus; conditions: HepAD38, 70 nM
Protocol: RNA metabolism in most eukaryotic mRNAs employs the 3′ deadenylation pathway in which poly(A) tail shortening is often observed prior to mRNA degradation ([38][–][40]). We therefore determined the HBV poly(A) tail length and composition from HepAD38 cells in the presence or absence of AB-452. To amplify the HBV poly(A) tail, G/I (guanosine and inosine nucleotides) tailing was added to the 3′ ends of mRNA transcripts, and the newly added G/I tails were used as the priming sites to synthesize the cDNA that would be used for amplification of HBV poly(A) tails. The lengths and compositions of the amplicons containing the HBV RNA poly(A) tails were analyzed by next-generation sequencing (PacBio Sequel sequencing platform). […] The poly(A) tails amplified from β-actin cDNAs served as the negative control, which was not affected by the treatment (Fig. 3D).
ACTB GSP primers include 5′-[…] -3′ (sense) and 5′-[…] -3′(antisense). Amplified products were used as loading control. […] Accuracy cutoff default was 0.9.

T2 sequence (Q8NDF8 106-438 limits assumed): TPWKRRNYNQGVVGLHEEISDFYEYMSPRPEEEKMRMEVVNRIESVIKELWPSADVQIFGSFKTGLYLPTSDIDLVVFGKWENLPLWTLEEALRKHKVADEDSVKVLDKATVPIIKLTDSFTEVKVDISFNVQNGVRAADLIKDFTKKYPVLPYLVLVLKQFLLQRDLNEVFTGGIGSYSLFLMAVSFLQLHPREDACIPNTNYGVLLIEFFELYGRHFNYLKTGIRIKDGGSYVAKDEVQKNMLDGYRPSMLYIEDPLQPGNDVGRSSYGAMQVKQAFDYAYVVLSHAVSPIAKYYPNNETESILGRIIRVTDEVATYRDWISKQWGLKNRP
T1 sequence (Q5XG87 226-558): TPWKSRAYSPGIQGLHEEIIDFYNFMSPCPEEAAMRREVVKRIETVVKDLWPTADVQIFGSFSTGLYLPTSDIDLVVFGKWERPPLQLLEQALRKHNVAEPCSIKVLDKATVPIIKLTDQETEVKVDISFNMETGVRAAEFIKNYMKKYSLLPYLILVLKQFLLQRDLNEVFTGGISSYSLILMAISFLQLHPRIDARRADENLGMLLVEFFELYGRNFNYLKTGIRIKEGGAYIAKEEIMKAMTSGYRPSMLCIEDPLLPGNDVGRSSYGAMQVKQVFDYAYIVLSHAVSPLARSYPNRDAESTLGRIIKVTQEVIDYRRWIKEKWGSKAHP

Question: `COCCCOc1cc2c(nc1OC)-c1cc(=O)c(C(=O)O)cn1[C@H](C(C)C)C2` [AB-452] was tested. Which IC50 (recombinant human PAPD7) did it give?
Answer: 498 nM

Question: What about the EC50 (HCV) of the same molecule?
Answer: > 30000 nM

Question: What about the IC50 (recombinant human PAPD5) of the same molecule?
Answer: 94 nM

Question: And the “sRNA (%) of untreated controls” value (HBV [1])?
Answer: ~18%

Question: What about the “mean reduction of serum HBV DNA vs vehicle” value (HBV [2]; 0.1 mg/kg twice daily) of the same molecule?
Answer: 0.79 log10

Question: What about the “mean reduction of serum HBsAg vs vehicle” value (HBV [2]; 0.1 mg/kg twice daily) of the same molecule?
Answer: 0.68 log10

Question: And the “reduction of intrahepatic HBsAg levels” value (HBV [2]; 0.1 mg/kg twice daily)?
Answer: 64%

Question: What about the “reduction of intrahepatic pgRNA levels” value (HBV [2]; 0.1 mg/kg twice daily) of the same molecule?
Answer: 43%

Question: And the “reduction of intrahepatic total HBV RNA levels” value (HBV [2]; 0.1 mg/kg twice daily)?
Answer: 35%

Question: And the “mean reduction of serum HBV DNA vs vehicle” value (HBV [2]; 0.3 mg/kg twice daily)?
Answer: 1.16 log10

Question: And the “mean reduction of serum HBsAg vs vehicle” value (HBV [2]; 0.3 mg/kg twice daily)?
Answer: 0.72 log10

Question: What about the “reduction of intrahepatic HBsAg levels” value (HBV [2]; 0.3 mg/kg twice daily) of the same molecule?
Answer: 69%

Question: What about the “reduction of intrahepatic pgRNA levels” value (HBV [2]; 0.3 mg/kg twice daily) of the same molecule?
Answer: 55%

Question: What about the “reduction of intrahepatic total HBV RNA levels” value (HBV [2]; 0.3 mg/kg twice daily) of the same molecule?
Answer: 55%

Question: What about the “mean reduction of serum HBV DNA vs vehicle” value (HBV [2]; 1 mg/kg twice daily) of the same molecule?
Answer: 0.94 log10

Question: And the “mean reduction of serum HBsAg vs vehicle” value (HBV [2]; 1 mg/kg twice daily)?
Answer: 0.93 log10

Question: What about the “reduction of intrahepatic HBsAg levels” value (HBV [2]; 1 mg/kg twice daily) of the same molecule?
Answer: 83%

Question: And the “reduction of intrahepatic pgRNA levels” value (HBV [2]; 1 mg/kg twice daily)?
Answer: 63%

Question: What about the “reduction of intrahepatic total HBV RNA levels” value (HBV [2]; 1 mg/kg twice daily) of the same molecule?
Answer: 66%

Question: What about the “tolerability / body weight” value (HBV [2]; oral, 0.1, 0.3, 1 mg/kg twice daily, vs vehicle) of the same molecule?
Answer: well tolerated, with no significant change or reduction in body weight

Question: What about the EC50 (HBV [3]) of the same molecule?
Answer: 2.3 ± 0.36 nM

Question: And the “average HBV RNA poly(A) tail length” value (HBV RNA poly(A) tails; 4 h, untreated around 100)?
Answer: 58 nucleotides

Question: What about the “fraction of poly(A) tails containing internal G” value (HBV RNA poly(A) tails; untreated 64%) of the same molecule?
Answer: 25%
